“And” between values parts separate entries of the source, which are not always exact repeats. Equal entries are not always repeated. Where two headings read alike, the source gives them in different places.
What was measured:
WNT/β-catenin signaling = test: cellular (HEK293) WNT/β-catenin signaling luciferase reporter assay; format: cell-based, human
TNKS2 = target: T1, TNKS2 (Homo sapiens, UniProt Q9H2K2); test: TNKS2 biochemical assay (unreacted NAD+ fluorescence); conditions: TNKS2 5 nM, 500 nM NAD+, 20 h; quadruplicates; 95% confidence intervals in parentheses; 24: averages of multiple independent measurements; read-out: IC50 TNKS2
T1 construct: TNKS2 (residues 873–1162); made in house
T1 sequence (Q9H2K2 873-1162): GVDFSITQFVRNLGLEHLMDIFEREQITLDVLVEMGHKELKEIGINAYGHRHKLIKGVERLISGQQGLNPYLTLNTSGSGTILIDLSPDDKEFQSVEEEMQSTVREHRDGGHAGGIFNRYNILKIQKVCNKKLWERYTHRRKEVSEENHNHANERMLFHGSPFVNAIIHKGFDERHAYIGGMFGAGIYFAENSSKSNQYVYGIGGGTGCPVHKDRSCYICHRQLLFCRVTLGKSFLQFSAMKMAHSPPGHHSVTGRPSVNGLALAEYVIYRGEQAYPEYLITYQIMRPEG
Description: New compounds were prepared in half-log dilution series, and the reactions were carried out in quadruplicates with protein and compound controls to exclude the effect of compound autofluorescence. All reactions were performed at ambient temperature. TNKS1 (20 nM) or TNKS2 (5 nM) was incubated for 20 h in assay buffer (50 mM Bis-Tris propane (BTP), pH 7.0, 0.5 mM Tris(2-carboxyethyl)phosphine (TCEP), 0.01% Triton X-100) with compound and 10 μM or 500 nM NAD^+, respectively.

[1] = Homo sapiens, HEK293, read-out: IC50 HEK293, HEK293 WNT/β-catenin signaling reporter assay, triplicates, 24: averages of multiple independent measurements
[2] = Homo sapiens, HEK293, read-out: IC50 HEK293
[3] = read-out: IC50 HEK293, HEK293 WNT/β-catenin signaling reporter assay, triplicates, 24: averages of multiple independent measurements

CCOc1ccc(-c2nnc([C@H]3C[C@H](NC(=O)c4cccc5nc(C)cnc45)C3)n2-c2ccccc2F)nc1 [Compound 27, N-(trans-3-(5-(5-Ethoxypyridin-2-yl)-4-(2-fluorophenyl)-4H-1,2,4-triazol-3-yl)cyclobutyl)-2-methylquinoxaline-5-carboxamide]
IC50 (WNT/β-catenin signaling; [1]): 2.4 nM | IC50 (TNKS2): 1.1 nM

CCOc1ccc(-c2nnc(C34CC(NC(=O)c5ccnc6cccnc56)(C3)C4)n2-c2ccncc2)nc1 [Compound 21, N-(3-(5-(5-Ethoxypyridin-2-yl)-4-(pyridin-4-yl)-4H-1,2,4-triazol-3-yl)bicyclo[1.1.1]pentan-1-yl)-1,5-naphthyridine-4-carboxamide]
IC50 (WNT/β-catenin signaling; [2]): 43 nM | IC50 (TNKS2): 9.4 nM

O=C(N[C@H]1C[C@H](c2nnc(-c3ccccn3)n2-c2ccccc2F)C1)c1cccc2nccnc12 [Compound 30a, N-(trans-3-(4-(2-Fluorophenyl)-5-(pyridin-2-yl)-4H-1,2,4-triazol-3-yl)cyclobutyl)quinoxaline-5-carboxamide]
IC50 (WNT/β-catenin signaling; [1]): 0.29 nM | IC50 (WNT/β-catenin signaling; [3]): 0.286 nM | IC50 (TNKS2): 1.6 nM

CCOc1ccc(-c2nnc([C@H]3C[C@H](NC(=O)c4ccnc5cccnc45)C3)n2-c2cccnc2)nc1 [Compound 17a, N-(trans-3-(5-(5-Ethoxypyridin-2-yl)-4-(pyridin-3-yl)-4H-1,2,4-triazol-3-yl)cyclobutyl)-1,5-naphthyridine-4-carboxamide]
IC50 (WNT/β-catenin signaling; [1]): 16 nM | IC50 (TNKS2): 4.5 nM

CC(C)Oc1ccc(-c2nnc([C@H]3C[C@H](NC(=O)c4ccccn4)C3)n2-c2ccccc2F)nc1 [Compound 8, N-(trans-3-(4-(2-Fluorophenyl)-5-(5-isopropoxypyridin-2-yl)-4H-1,2,4-triazol-3-yl)cyclobutyl)picolinamide]
IC50 (WNT/β-catenin signaling; [1]): 110 nM | IC50 (TNKS2): 12 nM

O=C(N[C@H]1C[C@H](c2nnc(-c3cnccn3)n2-c2ccccc2F)C1)c1ccccn1 [Compound 10, N-(trans-3-(4-(-2-Fluorophenyl)-5-(pyrazin-2-yl)-4H-1,2,4-triazol-3-yl)cyclobutyl)picolinamide]
IC50 (WNT/β-catenin signaling; [1]): 355 nM | IC50 (TNKS2): 93 nM

O=C(N[C@H]1C[C@H](c2nnc(-c3ccc(OC(F)F)cn3)n2-c2ccccc2F)C1)c1cccc2nccnc12 [Compound 29a, N-(trans-3-(5-(5-(Difluoromethoxy)pyridin-2-yl)-4-(2-fluorophenyl)-4H-1,2,4-triazol-3-yl)cyclobutyl)quinoxaline-5-carboxamide]
IC50 (WNT/β-catenin signaling; [1]): 1.2 nM | IC50 (TNKS2): 1.9 nM

CCOc1ccc(-c2nnc([C@H]3C[C@H](NC(=O)c4ccnc5cccnc45)C3)n2-c2ccncc2)nc1 [Compound 18a, N-(trans-3-(5-(5-Ethoxypyridin-2-yl)-4-(pyridin-4-yl)-4H-1,2,4-triazol-3-yl)cyclobutyl)-1,5-naphthyridine-4-carboxamide]
IC50 (WNT/β-catenin signaling; [1]): 13 nM | IC50 (TNKS2): 5.4 nM

CCOc1ccc(-c2nnc([C@H]3C[C@H](NC(=O)c4ccnc5cc(F)cnc45)C3)n2-c2ccc(C)s2)nc1 [Compound 22b, N-(trans-3-(5-(5-Ethoxypyridin-2-yl)-4-(5-methylthiophen-2-yl)-4H-1,2,4-triazol-3-yl)cyclobutyl)-7-fluoro-1,5-naphthyridine-4-carboxamide]
IC50 (WNT/β-catenin signaling; [1]): 1 nM | IC50 (TNKS2): 1.6 nM

CCOc1ccc(-c2nnc([C@H]3C[C@H](NC(=O)c4ccccn4)C3)n2-c2ccc(Cl)s2)nc1 [Compound 14, N-(trans-3-(4-(5-Chlorothiophen-2-yl)-5-(5-ethoxypyridin-2-yl)-4H-1,2,4-triazol-3-yl)cyclobutyl)picolinamide]
IC50 (WNT/β-catenin signaling; [1]): 27 nM | IC50 (TNKS2): 12 nM

CCOc1ccc(-c2nnc([C@H]3C[C@H](NC(=O)c4ccccn4)C3)n2-c2ccccc2)nc1 [Compound 11, N-(trans-3-(5-(5-Ethoxypyridin-2-yl)-4-phenyl-4H-1,2,4-triazol-3-yl)cyclobutyl)picolinamide]
IC50 (WNT/β-catenin signaling; [1]): 65 nM | IC50 (TNKS2): 5.2 nM

CCOc1ccc(-c2nnc([C@H]3C[C@H](NC(=O)c4ccnc5cccnc45)C3)n2-c2ccccn2)nc1 [Compound 16a, N-(trans-3-(5-(5-Ethoxypyridin-2-yl)-4-(pyridin-2-yl)-4H-1,2,4-triazol-3-yl)cyclobutyl)-1,5-naphthyridine-4-carboxamide]
IC50 (WNT/β-catenin signaling; [1]): 36 nM | IC50 (TNKS2): 5.8 nM

CCOc1ccc(-c2nnc(C34CC(NC(=O)c5ccnc6cccnc56)(C3)C4)n2-c2cccnc2)nc1 [Compound 20, N-(3-(5-(5-Ethoxypyridin-2-yl)-4-(pyridin-3-yl)-4H-1,2,4-triazol-3-yl)bicyclo[1.1.1]pentan-1-yl)-1,5-naphthyridine-4-carboxamide]
IC50 (WNT/β-catenin signaling; [2]): 30 nM | IC50 (TNKS2): 9.6 nM

CCOc1ccc(-c2nnc([C@H]3C[C@H](NC(=O)c4ccnc5cc(F)cnc45)C3)n2-c2ccccn2)nc1 [Compound 16b, N-(trans-3-(5-(5-Ethoxypyridin-2-yl)-4-(pyridin-2-yl)-4H-1,2,4-triazol-3-yl)cyclobutyl)-7-fluoro-1,5-naphthyridine-4-carboxamide]
IC50 (WNT/β-catenin signaling; [1]): 8.7 nM | IC50 (WNT/β-catenin signaling; [3]): 9 nM | IC50 (TNKS2): 8.5 nM

CCOc1ccc(-c2nnc([C@H]3C[C@H](NC(=O)c4ccccn4)C3)n2-c2ccc(C)s2)nc1 [Compound 13, N-(trans-3-(5-(5-Ethoxypyridin-2-yl)-4-(5-methylthiophen-2-yl)-4H-1,2,4-triazol-3-yl)cyclobutyl)picolinamide]
IC50 (WNT/β-catenin signaling; [1]): 37 nM | IC50 (TNKS2): 4.6 nM

O=C(N[C@H]1C[C@H](c2nnc(-c3ccc(OC4CC4)cn3)n2-c2ccccc2F)C1)c1ccccn1 [Compound 7, N-(trans-3-(5-(5-Cyclopropoxypyridin-2-yl)-4-(2-fluorophenyl)-4H-1,2,4-triazol-3-yl)cyclobutyl)picolinamide]
IC50 (WNT/β-catenin signaling; [1]): 49 nM | IC50 (TNKS2): 8.6 nM

CCOc1ccc(-c2nnc([C@H]3C[C@H](NC(=O)c4ccccn4)C3)n2-c2cccc(Cl)c2)nc1 [Compound 12, N-(trans-3-(4-(3-Chlorophenyl)-5-(5-ethoxypyridin-2-yl)-4H-1,2,4-triazol-3-yl)cyclobutyl)picolinamide]
IC50 (WNT/β-catenin signaling; [1]): 83 nM | IC50 (TNKS2): 13 nM

CCOc1ccc(-c2nnc([C@H]3C[C@H](NC(=O)c4ccnc5cc(F)cnc45)C3)n2-c2cccnc2)nc1 [Compound 17b, N-(trans-3-(5-(5-Ethoxypyridin-2-yl)-4-(pyridin-3-yl)-4H-1,2,4-triazol-3-yl)cyclobutyl)-7-fluoro-1,5-naphthyridine-4-carboxamide]
IC50 (WNT/β-catenin signaling; [1]): 9.1 nM | IC50 (WNT/β-catenin signaling; [3]): 9 nM | IC50 (TNKS2): 5.8 nM

CCOc1ccc(-c2nnc([C@H]3C[C@H](NC(=O)c4cccc5nc(C)c(C)nc45)C3)n2-c2ccccc2F)nc1 [Compound 28, N-(trans-3-(5-(5-Ethoxypyridin-2-yl)-4-(2-fluorophenyl)-4H-1,2,4-triazol-3-yl)cyclobutyl)-2,3-dimethylquinoxaline-5-carboxamide]
IC50 (WNT/β-catenin signaling; [1]): 4.3 nM | IC50 (TNKS2): 2.6 nM

CCOc1ccc(-c2nnc([C@H]3C[C@H](NC(=O)c4cccc5cccnc45)C3)n2-c2ccc(C)s2)nc1 [Compound 23, N-(trans-3-(5-(5-Ethoxypyridin-2-yl)-4-(5-methylthiophen-2-yl)-4H-1,2,4-triazol-3-yl)cyclobutyl)quinoline-8-carboxamide]
IC50 (WNT/β-catenin signaling; [1]): 1 nM | IC50 (TNKS2): 2.4 nM

CCOc1ccc(-c2nnc([C@H]3C[C@H](NC(=O)c4cccc5ncc(C)nc45)C3)n2-c2ccccc2F)nc1 [Compound 26, N-(trans-3-(5-(5-Ethoxypyridin-2-yl)-4-(2-fluorophenyl)-4H-1,2,4-triazol-3-yl)cyclobutyl)-3-methylquinoxaline-5-carboxamide]
IC50 (WNT/β-catenin signaling; [1]): 2.2 nM | IC50 (TNKS2): 1.5 nM

CCOc1ccc(-c2nnc(C34CC(NC(=O)c5ccnc6cccnc56)(C3)C4)n2-c2ccccn2)nc1 [Compound 19, N-(3-(5-(5-Ethoxypyridin-2-yl)-4-(pyridin-2-yl)-4H-1,2,4-triazol-3-yl)bicyclo[1.1.1]pentan-1-yl)-1,5-naphthyridine-4-carboxamide]
IC50 (WNT/β-catenin signaling; [2]): 20 nM | IC50 (TNKS2): 13 nM

O=C(N[C@H]1C[C@H](c2nnc(-c3ccccc3)n2-c2ccccc2F)C1)c1ccccn1 [Compound 9, N-(trans-3-(4-(2-Fluorophenyl)-5-phenyl-4H-1,2,4-triazol-3-yl)cyclobutyl)picolinamide]
IC50 (WNT/β-catenin signaling; [1]): 789 nM | IC50 (TNKS2): 220 nM and 216 nM

From publication PMC8713164, “Development of a 1,2,4-Triazole-Based Lead Tankyrase Inhibitor: Part II” (Journal of Medicinal Chemistry, 2021)
